According to patent EP4707280A1, “1,4-CINEOLE DERIVATIVE AND INTERMEDIATE THEREOF, HERBICIDE CONTAINING SAID DERIVATIVE AS ACTIVE INGREDIENT, METHOD FOR USING HERBICIDE, AND METHOD FOR PREPARING AGROCHEMICAL COMPOSITION” (HOKKO CHEMICAL INDUSTRY CO., LTD., priority 2023, dated 2024):

Columns and labels:
Format in all cases: in vivo
[1] = tested on: Echinochloa crus-galli var. formosensis; assay: Test Example 1: herbicidal effect test by soil application in paddy rice; conditions: 120 g active ingredient per 10 ares, applied immediately after sowing, flooded pots, 14 days after application; for pest or weed control at 1200 g/ha: Echinochloa crus-galli, soil, 336 h, read-out: weed inhibition rate
How it was run: (§1)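 Paddy soil in Wagner pots (1/10,000 acre), fertilized and puddled; 30 seeds per species sown at 0–1 cm, flooded to ~3 cm, greenhouse. Water-diluted emulsifiable concentrate dropped onto flooded pots right after sowing at 120 g active ingredient per 10 ares.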

Scirpus juncoides [2] = assay: as above; conditions: 120 g active ingredient per 10 ares, applied immediately after sowing, flooded pots, 14 days after application; for pest or weed control at 1200 g/ha: Schoenoplectiella juncoides, soil, 336 h, read-out: weed inhibition rate
How it was run: as §1

Monochoria vaginalis [3] = assay: as above; conditions: 120 g active ingredient per 10 ares, applied immediately after sowing, flooded pots, 14 days after application; for pest or weed control at 1200 g/ha: Pontederia vaginalis, soil, 336 h, read-out: weed inhibition rate
How it was run: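 Pre-emergence test in puddled, flooded paddy soil (about 3 cm water), 30 seeds per weed sown at 0–1 cm depth in a glass greenhouse. Emulsifiable concentrate diluted in water and dropped onto the pots straight after sowing at 120 g a.i. per 10 ares. Weed inhibition (%) scored at 14 days, in duplicate.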

[4] = tested on: Echinochloa crus-galli var. formosensis; assay: Test Example 2: herbicidal effect test by application during growth period of paddy rice; conditions: Echinochloa crus-galli; 120 g per 10 ares; applied seven days after sowing, flooded pots; 14 days after application; read-out: weed inhibition rate
How it was run: (§2)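 Weeds sown into puddled, flooded paddy soil received a post-emergence water application of emulsifiable concentrate at 120 g active ingredient per 10 ares, seven days after sowing. Herbicidal effect was rated 14 days later as inhibition (%).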

Monochoria vaginalis [5] = assay: as above; conditions: Pontederia vaginalis; 120 g per 10 ares; applied seven days after sowing, flooded pots; 14 days after application; read-out: weed inhibition rate
How it was run: as §2

Scirpus juncoides [6] = assay: as above; conditions: Schoenoplectiella juncoides; 120 g per 10 ares; applied seven days after sowing, flooded pots; 14 days after application; read-out: weed inhibition rate
How it was run: as §2

Monochoria vaginalis [7] = assay: Test Example 5: herbicidal effect test by soil application in paddy rice (low dose); conditions: Pontederia vaginalis, 336 h, 7.5 g per 10 ares, applied immediately after sowing, flooded pots, 14 days after application, read-out: weed inhibition rate
How it was run: (§3)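 Pots of puddled, fertilized paddy soil receive 30 seeds per species at 0–1 cm depth and are flooded to about 3 cm. The diluted emulsifiable concentrate is then dropped onto the water, delivering 7.5 g active ingredient per 10 ares. Greenhouse grown; herbicidal effect scored 14 days later, two replicates.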

Scirpus juncoides [8] = assay: as above; conditions: Schoenoplectiella juncoides, 336 h, 7.5 g per 10 ares, applied immediately after sowing, flooded pots, 14 days after application, read-out: weed inhibition rate
How it was run: as §3

Echinochloa crus-galli = assay: Test Example 8: herbicidal effect test by stem and leaf treatment in upland field (low dose); conditions: Echinochloa crus-galli; 7.5 g per 10 ares; sprayed seven days after sowing, upland soil; 14 days after application; read-out: weed inhibition rate
Digitaria ciliaris [9] = assay: Test Example 4: herbicidal effect test by stem and leaf treatment in upland field; conditions: Digitaria ciliaris; 120 g per 10 ares; sprayed seven days after sowing, upland soil; 14 days after application; read-out: weed inhibition rate
Digitaria ciliaris [10] = assay: Test Example 8: herbicidal effect test by stem and leaf treatment in upland field (low dose); conditions: Digitaria ciliaris; 7.5 g per 10 ares; sprayed seven days after sowing, upland soil; 14 days after application; read-out: weed inhibition rate

Cc1ccccc1CO[C@@H]1C[C@@]2(C(C)C)C=C[C@]1(C)O2 [3-2, (1R,4S,5R)-4-methyl-5-[(2-methylphenyl)methoxy]-1-isopropyl-7-oxabicyclo[2.2.1]hept-2-ene]
≥ 80%: pest or weed control at 1200 g/ha [1] | pest or weed control at 1200 g/ha (Scirpus juncoides [2]) | pest or weed control at 1200 g/ha (Monochoria vaginalis [3]) | inhibition at 1200 g/ha [4] | inhibition at 1200 g/ha (Monochoria vaginalis [5]) | inhibition at 1200 g/ha (Scirpus juncoides [6]) | inhibition at 75 g/ha (Monochoria vaginalis [7]) | inhibition at 75 g/ha (Scirpus juncoides [8]) | inhibition at 75 g/ha (Echinochloa crus-galli)

Cc1cccc(C)c1CO[C@@H]1C[C@@]2(C(C)C)C=C[C@]1(C)O2 [3-3, (1R,4S,5R)-5-[(2,6-dimethylphenyl)methoxy]-4-methyl-1-isopropyl-7-oxabicyclo[2.2.1]hept-2-ene]
≥ 80%: pest or weed control at 1200 g/ha [1] | pest or weed control at 1200 g/ha (Scirpus juncoides [2]) | pest or weed control at 1200 g/ha (Monochoria vaginalis [3]) | inhibition at 1200 g/ha [4] | inhibition at 1200 g/ha (Scirpus juncoides [6]) | inhibition at 1200 g/ha (Digitaria ciliaris [9]) | inhibition at 75 g/ha (Monochoria vaginalis [7]) | inhibition at 75 g/ha (Scirpus juncoides [8])

CC(C)[C@]12C[C@@H](OCc3ccsc3)[C@](C)(C[C@@H]1Br)O2 [1-722, (1S,2R,4R,5S)-5-bromo-1-methyl-4-isopropyl-2-(thiophen-3-ylmethoxy)-7-oxabicyclo[2.2.1]heptane]
≥ 80%: pest or weed control at 1200 g/ha [1] | pest or weed control at 1200 g/ha (Scirpus juncoides [2]) | pest or weed control at 1200 g/ha (Monochoria vaginalis [3]) | inhibition at 1200 g/ha [4] | inhibition at 1200 g/ha (Monochoria vaginalis [5]) | inhibition at 1200 g/ha (Scirpus juncoides [6]) | inhibition at 1200 g/ha (Digitaria ciliaris [9]) | inhibition at 75 g/ha (Monochoria vaginalis [7]) | inhibition at 75 g/ha (Scirpus juncoides [8]) | inhibition at 75 g/ha (Echinochloa crus-galli)

CC(C)[C@]12C=C[C@](C)(O1)[C@H](OCc1c(F)cccc1F)C2 [3-7, (1R,4S,5R)-5-[(2,6-difluorophenyl)methoxy]-4-methyl-1-isopropyl-7-oxabicyclo[2.2.1]hept-2-ene]
≥ 80%: pest or weed control at 1200 g/ha [1] | pest or weed control at 1200 g/ha (Scirpus juncoides [2]) | pest or weed control at 1200 g/ha (Monochoria vaginalis [3]) | inhibition at 1200 g/ha [4] | inhibition at 1200 g/ha (Scirpus juncoides [6]) | inhibition at 1200 g/ha (Digitaria ciliaris [9]) | inhibition at 75 g/ha (Monochoria vaginalis [7]) | inhibition at 75 g/ha (Scirpus juncoides [8]) | inhibition at 75 g/ha (Digitaria ciliaris [10]) | inhibition at 75 g/ha (Echinochloa crus-galli)

CC(C)[C@]12C[C@@H](OCc3cccc(F)c3)[C@](C)(C[C@@H]1Br)O2 [1-690, (1S,2R,4R,5S)-5-bromo-2-[(3-fluorophenyl)methoxy]-1-methyl-4-isopropyl-7-oxabicyclo[2.2.1]heptane]
≥ 80%: pest or weed control at 1200 g/ha [1] | pest or weed control at 1200 g/ha (Scirpus juncoides [2]) | pest or weed control at 1200 g/ha (Monochoria vaginalis [3]) | inhibition at 1200 g/ha [4] | inhibition at 1200 g/ha (Monochoria vaginalis [5]) | inhibition at 1200 g/ha (Scirpus juncoides [6]) | inhibition at 1200 g/ha (Digitaria ciliaris [9]) | inhibition at 75 g/ha (Monochoria vaginalis [7]) | inhibition at 75 g/ha (Digitaria ciliaris [10]) | inhibition at 75 g/ha (Echinochloa crus-galli)

CC(C)[C@]12C[C@@H](OCc3cccc(Cl)c3)[C@](C)(C[C@@H]1Br)O2 [1-692, (1S,2R,4R,5S)-5-bromo-2-[(3-chlorophenyl)methoxy]-1-methyl-4-isopropyl-7-oxabicyclo[2.2.1]heptane]
≥ 80%: pest or weed control at 1200 g/ha [1] | pest or weed control at 1200 g/ha (Scirpus juncoides [2]) | pest or weed control at 1200 g/ha (Monochoria vaginalis [3]) | inhibition at 1200 g/ha [4] | inhibition at 1200 g/ha (Monochoria vaginalis [5]) | inhibition at 1200 g/ha (Scirpus juncoides [6]) | inhibition at 1200 g/ha (Digitaria ciliaris [9]) | inhibition at 75 g/ha (Monochoria vaginalis [7]) | inhibition at 75 g/ha (Scirpus juncoides [8])

CC(C)[C@]12C[C@@H](OCc3ccccc3F)[C@](C)(C/C1=N\O)O2 [2-197, (1R,4S,5R,E)-5-((2-fluorobenzyl)oxy)-1-isopropyl-4-methyl-7-oxabicyclo[2.2.1]heptan-2-one oxime]
≥ 80%: pest or weed control at 1200 g/ha [1] | pest or weed control at 1200 g/ha (Scirpus juncoides [2]) | pest or weed control at 1200 g/ha (Monochoria vaginalis [3]) | inhibition at 1200 g/ha [4] | inhibition at 1200 g/ha (Monochoria vaginalis [5]) | inhibition at 1200 g/ha (Scirpus juncoides [6]) | inhibition at 1200 g/ha (Digitaria ciliaris [9]) | inhibition at 75 g/ha (Monochoria vaginalis [7]) | inhibition at 75 g/ha (Digitaria ciliaris [10]) | inhibition at 75 g/ha (Echinochloa crus-galli)

CC(C)C1C[C@]2(C)O[C@@]1(C(C)C)C[C@H]2OCc1ccccc1F (stereo partly drawn) [1-133, (1S,2R,4R)-2-[(2-fluorobenzyl)oxy]-4,5-isopropyl-1-methyl-7-oxabicyclo[2.2.1]heptane]
≥ 80%: weed inhibition rate [1] | weed inhibition rate (Scirpus juncoides [2]) | weed inhibition rate (Monochoria vaginalis [3]) | inhibition at 1200 g/ha [4] | inhibition at 1200 g/ha (Monochoria vaginalis [5]) | inhibition at 1200 g/ha (Scirpus juncoides [6]) | inhibition at 1200 g/ha (Digitaria ciliaris [9]) | inhibition at 75 g/ha (Monochoria vaginalis [7]) | inhibition at 75 g/ha (Scirpus juncoides [8]) | inhibition at 75 g/ha (Echinochloa crus-galli)

CC(C)[C@]12C[C@@H](OCc3cccc(F)c3F)[C@](C)(CC1=O)O2 [2-14, (1R,4S,5R)-5-((2,3-difluorobenzyl)oxy)-1-isopropyl-4-methyl-7-oxabicyclo[2.2.1]heptan-2-one]
≥ 80%: pest or weed control at 1200 g/ha [1] | pest or weed control at 1200 g/ha (Scirpus juncoides [2]) | pest or weed control at 1200 g/ha (Monochoria vaginalis [3]) | inhibition at 1200 g/ha [4] | inhibition at 1200 g/ha (Digitaria ciliaris [9]) | inhibition at 75 g/ha (Monochoria vaginalis [7]) | inhibition at 75 g/ha (Scirpus juncoides [8]) | inhibition at 75 g/ha (Digitaria ciliaris [10]) | inhibition at 75 g/ha (Echinochloa crus-galli)

Cc1ccccc1CO[C@@H]1C[C@]2(C(C)C)O[C@@]1(C)C/C2=N\O [2-191, (1R,4S,5R,E)-1-isopropyl-4-methyl-5-((2-methylbenzyl)oxy)-7-oxabicyclo[2.2.1]heptan-2-one oxime]
≥ 80%: pest or weed control at 1200 g/ha [1] | pest or weed control at 1200 g/ha (Scirpus juncoides [2]) | pest or weed control at 1200 g/ha (Monochoria vaginalis [3]) | inhibition at 1200 g/ha [4] | inhibition at 1200 g/ha (Monochoria vaginalis [5]) | inhibition at 1200 g/ha (Scirpus juncoides [6]) | inhibition at 1200 g/ha (Digitaria ciliaris [9]) | inhibition at 75 g/ha (Monochoria vaginalis [7]) | inhibition at 75 g/ha (Digitaria ciliaris [10]) | inhibition at 75 g/ha (Echinochloa crus-galli)

CC(C)[C@]12C[C@@H](OCc3ccccc3F)[C@](C)(C[C@@H]1I)O2 [1-753, (1S,2R,4R,SS)-2-[(2-fluorophenyl)methoxy]-5-iodo-1-methyl-4-isopropyl-7-oxabicyclo[2.2.1]heptane]
≥ 80%: weed inhibition rate [1] | weed inhibition rate (Scirpus juncoides [2]) | weed inhibition rate (Monochoria vaginalis [3]) | inhibition at 1200 g/ha [4] | inhibition at 1200 g/ha (Monochoria vaginalis [5]) | inhibition at 1200 g/ha (Scirpus juncoides [6]) | inhibition at 75 g/ha (Monochoria vaginalis [7]) | inhibition at 75 g/ha (Scirpus juncoides [8]) | inhibition at 75 g/ha (Echinochloa crus-galli)

Cc1ccccc1CO[C@@H]1C[C@]2(C(C)C)O[C@@]1(C)C[C@@H]2F [1-2, (1R,2S,4S,5R)-2-fluoro-1-isopropyl-4-methyl-5-((2-methylbenzyl)oxy)-7-oxabicyclo[2.2.1]heptane]
≥ 80%: pest or weed control at 1200 g/ha [1] | pest or weed control at 1200 g/ha (Scirpus juncoides [2]) | pest or weed control at 1200 g/ha (Monochoria vaginalis [3]) | inhibition at 1200 g/ha [4] | inhibition at 1200 g/ha (Monochoria vaginalis [5]) | inhibition at 1200 g/ha (Scirpus juncoides [6]) | inhibition at 1200 g/ha (Digitaria ciliaris [9]) | inhibition at 75 g/ha (Monochoria vaginalis [7]) | inhibition at 75 g/ha (Digitaria ciliaris [10]) | inhibition at 75 g/ha (Echinochloa crus-galli)

C=C1C[C@]2(C)O[C@@]1(C(C)C)C[C@H]2OCc1ccccc1C [2-72, (1R,4S,5R)-1-isopropyl-4-methyl-5-((2-methylbenzyl)oxy)-2-methylene-7-oxabicyclo[2.2.1]heptane]
≥ 80%: pest or weed control at 1200 g/ha [1] | pest or weed control at 1200 g/ha (Scirpus juncoides [2]) | pest or weed control at 1200 g/ha (Monochoria vaginalis [3]) | inhibition at 1200 g/ha [4] | inhibition at 1200 g/ha (Monochoria vaginalis [5]) | inhibition at 1200 g/ha (Scirpus juncoides [6]) | inhibition at 1200 g/ha (Digitaria ciliaris [9]) | inhibition at 75 g/ha (Monochoria vaginalis [7]) | inhibition at 75 g/ha (Digitaria ciliaris [10]) | inhibition at 75 g/ha (Echinochloa crus-galli)

CCCO[C@H]1C[C@]2(C)O[C@@]1(C(C)C)C[C@H]2OCc1ccccc1F [1-1604, (1S,2R,4R,SS)-2-[(2-fluorophenyl)methoxy]-1-methyl-4-isopropyl-5-propoxy-7-oxabicyclo[2.2.1]heptane]
≥ 80%: weed inhibition rate [1] | weed inhibition rate (Scirpus juncoides [2]) | weed inhibition rate (Monochoria vaginalis [3]) | inhibition at 1200 g/ha [4] | inhibition at 1200 g/ha (Scirpus juncoides [6]) | inhibition at 1200 g/ha (Digitaria ciliaris [9]) | inhibition at 75 g/ha (Monochoria vaginalis [7]) | inhibition at 75 g/ha (Scirpus juncoides [8]) | inhibition at 75 g/ha (Digitaria ciliaris [10]) | inhibition at 75 g/ha (Echinochloa crus-galli)
